Experimental data taken from PMC9609971, “Benzimidazole Bearing Thiosemicarbazone Derivatives Act as Potent α-Amylase and α-Glucosidase Inhibitors; Synthesis, Bioactivity Screening and Molecular Docking Study” (Molecules, 2022).

Tests used:
[1] = target: crude intestinal α-glucosidase; assay: In vitro α-glucosidase activity assay (p-nitrophenyl-α-D-glucopyranoside substrate); type: biochemical; settings: triplicate; ± SEM
Protocol: The α-Glucosidase activity was determined by a slight modification to the already-reported method. In a 96-well microplate, 10 μL of test samples (5 mg/mL DMSO solution) were reconstituted in 100 μL of 100 mM-phosphate buffer (pH 6.8) and incubated with 50 μL of crude intestinal α-glucosidase for 5 min before 50 μL substrate (5 mM, p-nitrophenyl-α-D-glucopyranoside prepared in the same buffer) was added. The release of p-nitrophenol was measured at 405 nm spectrophotometrically for 5 min after incubation with the substrate. Individual blanks for test samples were prepared to correct background absorbance where the substrate was replaced with 50 μL of the buffer. The control sample contained 10 μL DMSO in place of the test samples. All reactions were carried out in triplicate.
The percentage of enzyme inhibition was calculated as (1 − B/A) × 100.
Where A represents the absorbance of control without test samples, and B represents absorbance in the presence of test samples.

[2] = target: T1, Porcine pancreatic α-amylase (Sus scrofa, UniProt P00690); assay: In vitro α-amylase activity assay (starch/dinitrosalicylic acid); type: biochemical; settings: triplicate; ± SEM
T1 construct: α-amylase solution (Porcine pancreatic α-amylase); from tissue; host or cells: porcine pancreas (from the enzyme's name only)
T1 sequence (P00690 16-511): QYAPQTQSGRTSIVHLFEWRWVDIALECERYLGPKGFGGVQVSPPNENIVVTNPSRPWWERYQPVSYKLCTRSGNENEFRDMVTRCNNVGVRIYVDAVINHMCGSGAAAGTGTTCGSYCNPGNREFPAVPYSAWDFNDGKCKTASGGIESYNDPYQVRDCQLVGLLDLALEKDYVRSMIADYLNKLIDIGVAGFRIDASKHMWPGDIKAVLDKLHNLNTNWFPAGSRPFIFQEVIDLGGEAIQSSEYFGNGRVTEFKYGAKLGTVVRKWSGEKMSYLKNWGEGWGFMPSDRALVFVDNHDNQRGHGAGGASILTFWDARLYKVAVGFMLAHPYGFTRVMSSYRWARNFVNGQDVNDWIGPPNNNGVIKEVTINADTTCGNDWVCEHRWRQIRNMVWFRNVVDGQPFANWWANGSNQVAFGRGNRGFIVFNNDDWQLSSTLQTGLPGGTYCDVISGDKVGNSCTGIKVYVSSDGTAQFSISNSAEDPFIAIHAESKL
Protocol: α-Amylase inhibition was determined by an assay modified by Kwon, Apostolidis & Shetty. A total of 40 μL of sample and 40 μL of 0.02 M sodium phosphate buffer (pH 6.9 with 0.006 M sodium chloride) containing α-amylase solution (Porcine pancreatic α-amylase) (0.5 mg/mL) were incubated at 25 °C for 10 min. After pre-incubation, 40 μL of a 1% starch solution in 0.02 M sodium phosphate buffer (pH 6.9 with 0.006 M sodium chloride) was added to each tube at 5 s intervals. The reaction mixtures were then incubated at 25 °C for 10 min. The reaction was stopped with 100 μL of dinitrosalicylic acid color reagent. The test tubes were then incubated in a boiling water bath for 5 min and cooled to room temperature. The reaction mixture was then diluted after adding 900 μL of distilled water, and the absorbance was measured at 540 nm. […] All reactions were carried out in triplicate.

Compound | IC50 [1] [µM] | IC50 [2] [µM]
O=[N+]([O-])c1ccccc1/C=N/NC(=S)NN=C(CSc1nc2ccccc2[nH]1)c1ccc(-c2ccccc2)cc1 [derivative 7, N′-(2-((1H-Benzo[d]imidazol-2-yl)thio)-1-([1,1′-biphenyl]-4-yl)ethylidene)-2-((E)-2-nitrobenzylidene)hydrazine-1-carbothiohydrazide] | 14.2 ± 0.1 | 16.1 ± 0.01
O=[N+]([O-])c1ccc(/C=N/NC(=S)NN=C(CSc2nc3ccccc3[nH]2)c2ccc(-c3ccccc3)cc2)cc1 [derivative 8, N′-(2-((1H-Benzo[d]imidazol-2-yl)thio)-1-([1,1′-biphenyl]-4-yl)ethylidene)-2-((E)-4-nitrobenzylidene)hydrazine-1-carbothiohydrazide] | 17.2 ± 0.1 | 15.2 ± 0.2
O=[N+]([O-])c1cccc(/C=N/NC(=S)NN=C(CSc2nc3ccccc3[nH]2)c2ccc(-c3ccccc3)cc2)c1 [derivative 9, N′-(2-((1H-Benzo[d]imidazol-2-yl)thio)-1-([1,1′-biphenyl]-4-yl)ethylidene)-2-((E)-3-nitrobenzylidene)hydrazine-1-carbothiohydrazide] | 14.2 ± 0.2 | 13.1 ± 0.1
Oc1ccc(/C=N/NC(=S)NN=C(CSc2nc3ccccc3[nH]2)c2ccc(-c3ccccc3)cc2)cc1 [derivative 10, N′-(2-((1H-Benzo[d]imidazol-2-yl)thio)-1-([1,1′-biphenyl]-4-yl)ethylidene)-2-((E)-4-hydroxybenzylidene)hydrazine-1-carbothiohydrazide] | 11.2 ± 0.1 | 10.2 ± 0.02
O=[N+]([O-])c1ccccc1/C=N/NC(=S)NN=C(CSc1nc2ccccc2[nH]1)c1ccc(Cl)c(Cl)c1 [derivative 11, N′-(2-((1H-Benzo[d]imidazol-2-yl)thio)-1-(3,4-dichlorophenyl)ethylidene)-2-((E)-2-nitrobenzylidene)hydrazine-1-carbothiohydrazide] | 4.2 ± 0.1 | 3.1 ± 0.1
Oc1ccc(/C=N/NC(=S)NN=C(CSc2nc3ccccc3[nH]2)c2ccc(Cl)c(Cl)c2)cc1 [derivative 12, N′-(2-((1H-Benzo[d]imidazol-2-yl)thio)-1-(3,4-dichlorophenyl)ethylidene)-2-((E)-4-hydroxybenzylidene)hydrazine-1-carbothiohydrazide] | 2.2 ± 0.2 | 1.1 ± 0.2
O=[N+]([O-])c1ccc(/C=N/NC(=S)NN=C(CSc2nc3ccccc3[nH]2)c2ccc(Cl)c(Cl)c2)cc1 [derivative 13, N′-(2-((1H-Benzo[d]imidazol-2-yl)thio)-1-(3,4-dichlorophenyl)ethylidene)-2-((E)-4-nitrobenzylidene)hydrazine-1-carbothiohydrazide] | 3.1 ± 0.2 | 2.1 ± 0.2
O=[N+]([O-])c1cccc(/C=N/NC(=S)NN=C(CSc2nc3ccccc3[nH]2)c2ccc(Cl)c(Cl)c2)c1 [derivative 14, N′-(2-((1H-Benzo[d]imidazol-2-yl)thio)-1-(3,4-dichlorophenyl)ethylidene)-2-((E)-3-nitrobenzylidene)hydrazine-1-carbothiohydrazide] | 7.1 ± 0.01 | 6.1 ± 0.2
O=[N+]([O-])c1ccccc1/C=N/NC(=S)NN=C(CSc1nc2ccccc2[nH]1)c1ccc(Br)cc1 [derivative 15, N′-(2-((1H-Benzo[d]imidazol-2-yl)thio)-1-(4-bromophenyl)ethylidene)-2-((E)-2-nitrobenzylidene)hydrazine-1-carbothiohydrazide] | 18.1 ± 0.2 | 17.1 ± 0.01
Oc1ccc(/C=N/NC(=S)NN=C(CSc2nc3ccccc3[nH]2)c2ccc(Br)cc2)cc1 [derivative 16, N′-(2-((1H-Benzo[d]imidazol-2-yl)thio)-1-(4-bromophenyl)ethylidene)-2-((E)-4-hydroxybenzylidene)hydrazine-1-carbothiohydrazide] | 21.1 ± 0.01 | 20.1 ± 0.2
O=[N+]([O-])c1ccc(/C=N/NC(=S)NN=C(CSc2nc3ccccc3[nH]2)c2ccc(Br)cc2)cc1 [derivative 17, N′-(2-((1H-Benzo[d]imidazol-2-yl)thio)-1-(4-bromophenyl)ethylidene)-2-((E)-4-nitrobenzylidene)hydrazine-1-carbothiohydrazide] | 16.1 ± 0.01 | 15.1 ± 0.2
O=[N+]([O-])c1cccc(/C=N/NC(=S)NN=C(CSc2nc3ccccc3[nH]2)c2ccc(Br)cc2)c1 [derivative 18, N′-(2-((1H-Benzo[d]imidazol-2-yl)thio)-1-(4-bromophenyl)ethylidene)-2-((E)-3-nitrobenzylidene)hydrazine-1-carbothiohydrazide] | 14.1 ± 0.01 | 13.2 ± 0.2
Fc1cccc(/C=N/NC(=S)N/N=C(\CSc2nc3ccccc3[nH]2)c2cccc(F)c2)c1 [derivative 19] | 1.3 ± 0.2 | 1.2 ± 0.2
O=[N+]([O-])c1cccc(/C=N/NC(=S)N/N=C(\CSc2nc3ccccc3[nH]2)c2ccccc2)c1 [derivative 21, N′-((Z)-2-((1H-Benzo[d]imidazol-2-yl)thio)-1-phenylethylidene)-2-((E)-3-nitrobenzylidene)hydrazine-1-carbothiohydrazide] | 22.1 ± 0.2 | 21.1 ± 0.01
N′-((Z)-2-((1H-Benzo[d]imidazol-2-yl)thio)-1-(3-fluorophenyl)ethylidene)-2-((E)-2-methyl-4-nitrobenzylidene)hydrazine-1-carbothiohydrazide [derivative 20] | 1.6 ± 0.2 | 1.4 ± 0.01
